Measured values: patent US20240307487A1 (priority 2020, published 2024)
Where a SMILES comes first, the peptide text is derived from it.

Tests used:
A(H1N1)pdm09 virus [1] = type: cell-based
A(H1N1)pdm09 virus [2] = system: A(H1N1)pdm09 virus
A(H1N1)pdm09 virus [3] = system: A(H1N1)pdm09 virus; remark: listed apart in the source

Row | Compound | inhibition of P10 virus replication (A(H1N1)pdm09 virus [1]) | inhibition of P15 virus replication (A(H1N1)pdm09 virus [1]) | IC50 (A(H1N1)pdm09 virus [1]; read-out: IC50 against parent A(H1N1)pdm09 virus (P0)) [nM] | inhibition of viral replication, A(H1N1)pdm09 virus (A(H1N1)pdm09 virus [2]) [fold] | inhibition of P30 and P40 virus replication (A(H1N1)pdm09 virus [1]) | viral RNP release into nuclei (A(H1N1)pdm09 virus [3]) | inhibition of viral replication, SARS-CoV-2 (SARS-CoV-2) [fold]
2 | CC[C@H](C)[C@H](NC(=O)[C@H](C)NC(=O)CNC(=O)[C@@H](N)CC(N)=O)C(=O)N[C@@H](CS)C(=O)N[C@@H](Cc1c[nH]c2ccccc12)C(=O)NCC(=O)N1CCC[C@H]1C(=O)N[C@@H](CS)C(=O)N1CCC[C@H]1C(=O)N[C@H](C(=O)N[C@@H](C)C(=O)N[C@@H](Cc1ccccc1)C(=O)N[C@@H](CCCNC(=N)N)C(=O)N[C@@H](CCC(N)=O)C(=O)N[C@H](C(=O)NCC(=O)N[C@@H](CC(N)=O)C(=O)N[C@@H](CS)C(=O)NCC(=O)N[C@@H](CCCNC(=N)N)C(=O)N[C@@H](Cc1ccccc1)C(=O)N[C@@H](CCCNC(=N)N)C(=O)N[C@H](C(=O)N[C@@H](CCCNC(=N)N)C(=O)N[C@@H](CS)C(=O)N[C@@H](CS)C(=O)N[C@@H](CCCNC(=N)N)C(=O)N[C@H](C(=O)N[C@@H](CCCNC(=N)N)C(=O)O)[C@@H](C)CC)C(C)C)[C@@H](C)CC)[C@@H](C)O [P9R] (H-NGAICWGPCPTAFRQIGNCGRFRVRCCRIR-OH) | – | – | – | > 20 | could efficiently inhibit P30 and P40 virus replication | could inhibit viral RNP release into nuclei | 1000
